ChEMBL document CHEMBL1201862, “PubChem BioAssay data set” (2004)
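The compound was tested at five concentrations on cells cultured in 96-well plates, with a 48-hour exposure period. Here, GI50 denotes the concentration required for 50% inhibition of growth.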 Calls of active or inactive are those of the source. Rule as the data show it: active = GI50 up to about 1.1 µM and inactive = higher.

Key:
Assay in all cases: growth of human tumour cells (NCI), 48 h
[1] = test system: BT-549
[2] = test system: DU-145
[3] = test system: EKVX
[4] = test system: HCT-116
[5] = test system: HOP-92
[6] = test system: IGROV-1
[7] = test system: M14
[8] = test system: MOLT-4
[9] = test system: NCI/ADR-RES
[10] = test system: OVCAR-3
[11] = test system: OVCAR-4
[12] = test system: OVCAR-8
[13] = test system: RXF 393
[14] = test system: SF-295
[15] = test system: SK-MEL-5
[16] = test system: SNB-19
[17] = test system: U-251
[18] = test system: UACC-62
[19] = test system: UO-31
[20] = test system: NCI-H460

| Compound | GI50 [1] | GI50 [2] | GI50 [3] | GI50 [4] | GI50 [5] | GI50 [6] | GI50 [7] | GI50 [8] | GI50 [9] | GI50 [10] | GI50 [11] | GI50 [12] | GI50 [13] | GI50 [14] | GI50 [15] | GI50 [16] | GI50 [17] | GI50 [18] | GI50 [19] | GI50 [20] |
| --- | --- | --- | --- | --- | --- | --- | --- | --- | --- | --- | --- | --- | --- | --- | --- | --- | --- | --- | --- | --- |
| COc1ccc2nc(N/N=C/c3ccc(C)s3)cc(C)c2c1 | 14.9 µM (inactive) | 17.7 µM (inactive) | 26.4 µM (inactive) | 4.65 µM (inactive) | 13.9 µM (inactive) | 26.2 µM (inactive) | 16.6 µM (inactive) | 12.9 µM (inactive) | 19.7 µM (inactive) | 19.6 µM (inactive) | 13.9 µM (inactive) | 19.5 µM (inactive) | 19.2 µM (inactive) | 16.9 µM (inactive) | 15.5 µM (inactive) | 17.3 µM (inactive) | 21.1 µM (inactive) | 16.8 µM (inactive) | 17.7 µM (inactive) | – |
| Cc1ccc(O)c(C2=CC3=NNC(=O)C3C(c3cccc(Cl)c3)C2)c1 (configuration not stated) | 26.7 µM (inactive) | 43.4 µM (inactive) | 37.3 µM (inactive) | 30.9 µM (inactive) | 24 µM (inactive) | 31.2 µM (inactive) | 52 µM (inactive) | 46.2 µM (inactive) | 50.4 µM (inactive) | 26.4 µM (inactive) | 12.8 µM (inactive) | 26.2 µM (inactive) | 2.56 µM (inactive) | 37.6 µM (inactive) | 32.1 µM (inactive) | 50.6 µM (inactive) | 35.5 µM (inactive) | 24.9 µM (inactive) | 71.6 µM (inactive) | 32.4 µM (inactive) |
| CC#CCCCC1(C)CCCNC1=S (configuration not stated) | > 10 µM (inactive) | > 10 µM (inactive) | > 10 µM (inactive) | – | > 10 µM (inactive) | > 10 µM (inactive) | > 10 µM (inactive) | > 10 µM (inactive) | > 10 µM (inactive) | > 10 µM (inactive) | > 10 µM (inactive) | > 10 µM (inactive) | > 10 µM (inactive) | > 10 µM (inactive) | > 10 µM (inactive) | > 10 µM (inactive) | > 10 µM (inactive) | > 10 µM (inactive) | > 10 µM (inactive) | > 10 µM (inactive) |
| Oc1cc(Br)cc2cccnc12 | 5.15 µM (inactive) | 9.91 µM (inactive) | 2.09 µM (inactive) | 1.78 µM (inactive) | 5.15 µM (inactive) | 1.71 µM (inactive) | 1.37 µM (inactive) | 1.35 µM (inactive) | 1.25 µM (inactive) | 1.05 µM (active) | 1.25 µM (inactive) | 1.29 µM (inactive) | 2.05 µM (inactive) | 1.67 µM (inactive) | 2.38 µM (inactive) | 15.6 µM (inactive) | 1.58 µM (inactive) | 1.92 µM (inactive) | 1.5 µM (inactive) | 1.31 µM (inactive) |
| c1ccc2sc(C3(N4CCCCC4)CCCC3)cc2c1 | 12.6 µM (inactive) | 11.3 µM (inactive) | 7.14 µM (inactive) | 5.94 µM (inactive) | 11.2 µM (inactive) | 10.6 µM (inactive) | 15.1 µM (inactive) | 3.52 µM (inactive) | 6.24 µM (inactive) | 8.69 µM (inactive) | 9.02 µM (inactive) | 10.4 µM (inactive) | 14.1 µM (inactive) | 11 µM (inactive) | 10.9 µM (inactive) | 13.8 µM (inactive) | – | 15.5 µM (inactive) | 16.9 µM (inactive) | 5.93 µM (inactive) |
| CNC(Cc1ccccc1)c1cccc(OC)c1O (configuration not stated) | > 100 µM (inactive) | > 100 µM (inactive) | 92.9 µM (inactive) | > 100 µM (inactive) | > 100 µM (inactive) | > 100 µM (inactive) | > 100 µM (inactive) | > 100 µM (inactive) | > 100 µM (inactive) | 60.5 µM (inactive) | > 100 µM (inactive) | > 100 µM (inactive) | > 100 µM (inactive) | > 100 µM (inactive) | > 100 µM (inactive) | > 100 µM (inactive) | > 100 µM (inactive) | > 100 µM (inactive) | > 100 µM (inactive) | > 100 µM (inactive) |
| COc1cc2oc(-c3ccc4c(c3)OCO4)c(OC)c(=O)c2c(O)c1OC | 34.9 µM (inactive) | > 50 µM (inactive) | > 50 µM (inactive) | > 50 µM (inactive) | 22.8 µM (inactive) | > 50 µM (inactive) | > 50 µM (inactive) | > 50 µM (inactive) | > 50 µM (inactive) | > 50 µM (inactive) | > 50 µM (inactive) | > 50 µM (inactive) | > 50 µM (inactive) | 43.8 µM (inactive) | > 50 µM (inactive) | > 50 µM (inactive) | 18.9 µM (inactive) | > 50 µM (inactive) | > 50 µM (inactive) | > 50 µM (inactive) |
